Measured values published in patent US20220338473A1, “USE OF BENZYL ALCOHOL AS A HERBICIDE” (INNOVI, priority 2019, published 2022).

Assays:
Experiment in all cases: Foliar application (spraying) on potted plants
Type in all cases: in vivo
[1] = system: Carnation; settings: 8 g benzyl alcohol (400 L/Ha) in 16 g total (800 L/ha)
Procedure: (§1) Assays were carried out on different plants by foliar application (spraying) to evaluate the herbicide function, its foliar application mode and its speed of action.
(§2) The assays were carried out on potted plants. The application of the product is carried out with a trigger spray bottle which makes it possible to spray 1 g of product per spraying as microdroplets.
(§3) The plants were sprinkled with different quantities of water containing different quantities of pure benzyl alcohol (PanReac AppliChem—ITW Reagents). The untreated (control) plants are sprinkled with the same total quantity, but of water only.
(§4) The collapsing of the plant, the colour intensity of the plant and the diameter of the plant were measured in the following manner: • Collapsing of the plant: the collapsing was evaluated on a scale of 1 to 5. A score of 5 corresponds to the state of the plant habit at T0 and 1 corresponds to a total collapsing of the plant. • Colour intensity: the colour of the plant (leaves and flowers) is evaluated on a scale of 1 to 5. A score of 5 corresponds to the colour intensity of the plant at T0 and a score of 1 corresponds to a total discoloration of the plant (white or brown according to the type of plant). • Diameter of the plant: the diameter of the plant corresponds to the surface area occupied by the plant seen from above and is evaluated by a score of 1 to 5. A score of 5 corresponds to the diameter of the plant at T0 and a score of 1 corresponds to the size of the pot (or smaller than this).

[2] = system: Dahlia; settings: 2 g benzyl alcohol (100 L/Ha) in 20 g total (1000 L/ha)
Procedure: as §1, §2, §3, §4

[3] = system: Ivy; settings: 16 g benzyl alcohol (800 L/Ha) in 20 g total (1000 L/Ha)
Procedure: as §1, §2, §3, §4

[4] = system: Lobelia; settings: 6 g benzyl alcohol (300 L/Ha) in 6 g total (300 L/ha)
Procedure: as §1, §2, §3, §4

[5] = system: Pink petunia; settings: 0.4 g benzyl alcohol (20 L/Ha) in 4 g total (200 L/ha)
Procedure: as §1, §2, §3, §4

[6] = system: Purple horned pansy; settings: 1 g benzyl alcohol (50 L/Ha) in 12 g total (600 L/Ha)
Procedure: as §1, §2, §3, §4

[7] = system: Sage; settings: 4 g benzyl alcohol (200 L/Ha) in 10 g total (500 L/Ha)
Procedure: as §1, §2, §3, §4

[8] = system: White horned pansy; settings: 12 g benzyl alcohol (600 L/Ha) in 12 g total (600 L/Ha)
Procedure: as §1, §2, §3, §4

[9] = system: White petunia; settings: 0.1 g benzyl alcohol (5 L/Ha) in 6 g total (300 L/Ha)
Procedure: as §1, §2, §3, §4

OCc1ccccc1 [benzyl alcohol]
Collapsing of treated plant (score and time): time to pass from score 5 (T0) to score 1 [1]: 1 to 24 h | Colour intensity of treated plant (score and time): time to pass from score 5 (T0) to score 1 [1]: 1 to 24 h | Diameter of treated plant (score and time): time to pass from score 5 (T0) to score 1 [1]: 1 to 48 h | Collapsing of treated plant (score and time): time to pass from score 5 (T0) to score 1 [2]: 1 to 48 h | Colour intensity of treated plant (score and time): time to pass from score 5 (T0) to score 1 [2]: 1 to 24 h | Diameter of treated plant (score and time): time to pass from score 5 (T0) to score 1 [2]: 1 to 72 h | Collapsing of treated plant (score and time): time to pass from score 5 (T0) to score 1 [3]: 1 to 96 h | Colour intensity of treated plant (score and time): time to pass from score 5 (T0) to score 1 [3]: 1 to 48 h | Diameter of treated plant (score and time): time to pass from score 5 (T0) to score 1 [3]: 1 to 96 h | Collapsing of treated plant (score and time): time to pass from score 5 (T0) to score 1 [4]: 1 to 24 h | Colour intensity of treated plant (score and time): time to pass from score 5 (T0) to score 1 [4]: 1 to 24 h | Diameter of treated plant (score and time): time to pass from score 5 (T0) to score 1 [4]: 1 to 24 h | Collapsing of treated plant (score and time): time to pass from score 5 (T0) to score 1 [5]: 1 to 72 h | Colour intensity of treated plant (score and time): time to pass from score 5 (T0) to score 1 [5]: 1 to 48 h | Diameter of treated plant (score and time): time to pass from score 5 (T0) to score 1 [5]: 1 to 96 h | Collapsing of treated plant (score and time): time to pass from score 5 (T0) to score 1 [6]: 1 to 48 h | Colour intensity of treated plant (score and time): time to pass from score 5 (T0) to score 1 [6]: 1 to 24 h | Diameter of treated plant (score and time): time to pass from score 5 (T0) to score 1 [6]: 1 to 48 h | Collapsing of treated plant (score and time): time to pass from score 5 (T0) to score 1 [7]: 1 to 48 h | Colour intensity of treated plant (score and time): time to pass from score 5 (T0) to score 1 [7]: 1 to 24 h | Diameter of treated plant (score and time): time to pass from score 5 (T0) to score 1 [7]: 1 to 48 h | Collapsing of treated plant (score and time): time to pass from score 5 (T0) to score 1 [8]: 1 to 6 h | Colour intensity of treated plant (score and time): time to pass from score 5 (T0) to score 1 [8]: 1 to 6 h | Diameter of treated plant (score and time): time to pass from score 5 (T0) to score 1 [8]: 1 to 6 h | Collapsing of treated plant (score and time): time to pass from score 5 (T0) to score 1 [9]: 1 to 96 h | Colour intensity of treated plant (score and time): time to pass from score 5 (T0) to score 1 [9]: 1 to 96 h | Diameter of treated plant (score and time): time to pass from score 5 (T0) to score 1 [9]: 1 to 120 h
